Measurements: publication PMC6112376, “Comprehensive Analyses and Prioritization of Tox21 10K Chemicals Affecting Mitochondrial Function by in-Depth Mechanistic Studies” (Environmental Health Perspectives, 2018)
Counter-ions that a name gives are not always drawn. Like-named read-outs stand apart in the source and are kept apart here.

Tests used:
HepG2 cells [1] = experiment: cells; settings: Homo sapiens; for IC50: HepG2, read-out: MMP assays IC50 (µM) HepG2; for Emax: HepG2, read-out: MMP assays efficacy (%) HepG2
rat primary hepatocytes [2] = system: rat primary hepatocytes
HepG2 cells [3] = settings: cited from earlier work
rat primary hepatocytes [4] = experiment: MMP assay in rat primary hepatocytes; settings: for IC50: Rattus norvegicus, Hepatocyte, read-out: MMP assays IC50 (µM) Rat Hepatocytes
[5] = read-out: MMP assays IC50 (µM), qHTS-HepG2
[6] = read-out: MMP assays IC50 (µM) qHTS-HepG2

## CCCOC(=O)c1ccc(O)cc1 [Propylparaben]
HepG2 cells [1]
  IC50: 35.5 µM
  Emax: 91%
Rat primary hepatocytes [2]
  MMP assays efficacy (%) Rat Hepatocytes: inactive
HepG2 cells [3]
  MMP assays efficacy (%) qHTS-HepG2: -99±4%
HepG2 cells [3]; [5]
  IC50: 38.6 ± 1.67 µM
Rat primary hepatocytes [4]
  MMP assays IC50 (µM) Rat Hepatocytes: inactive

## C[C@H]1O[C@@H](O[C@H]2[C@@H](O)C[C@H](O[C@H]3[C@@H](O)C[C@H](O[C@H]4CC[C@@]5(C)[C@H](CC[C@@H]6[C@@H]5C[C@@H](O)[C@]5(C)[C@@H](C7=CC(=O)OC7)CC[C@]65O)C4)O[C@@H]3C)O[C@@H]2C)C[C@H](O)[C@@H]1O [Digoxin]
HepG2 cells [1]
  IC50: 0.13 µM
  Emax: 105%
Rat primary hepatocytes [2]
  MMP assays efficacy (%) Rat Hepatocytes: inactive
HepG2 cells [3]
  MMP assays efficacy (%) qHTS-HepG2: -71±8%
HepG2 cells [3]; [6]
  IC50: 0.52 ± 0.09 µM
Rat primary hepatocytes [4]
  MMP assays IC50 (µM) Rat Hepatocytes: inactive

## CC(COc1ccccc1)N(CCCl)Cc1ccccc1 (stereo not drawn) [Phenoxybenzamine hydrochloride]
HepG2 cells [1]
  IC50: 35.5 µM
  Emax: 63%
Rat primary hepatocytes [2]
  MMP assays efficacy (%) Rat Hepatocytes: inactive
HepG2 cells [3]
  MMP assays efficacy (%) qHTS-HepG2: -99±7%
HepG2 cells [3]; [5]
  IC50: 48.8 ± 9.17 µM
Rat primary hepatocytes [4]
  MMP assays IC50 (µM) Rat Hepatocytes: inactive

## c1ccc(-c2cccc(-c3ccccc3)c2)cc1 [1,1':3',1''-Terphenyl]
HepG2 cells [1]
  IC50: 50.1 µM
  Emax: 90%
Rat primary hepatocytes [2]
  MMP assays efficacy (%) Rat Hepatocytes: -53±28%
HepG2 cells [3]
  MMP assays efficacy (%) qHTS-HepG2: -80±13%
HepG2 cells [3]; [6]
  IC50: 47.9 ± 14.3 µM
Rat primary hepatocytes [4]
  IC50: 29.6 ± 27.7 µM

## O=C(O)Cc1sc(-c2ccccc2)nc1-c1ccc(Cl)cc1 [Fentiazac]
HepG2 cells [1]
  IC50: 19.4 µM
  Emax: 57%
Rat primary hepatocytes [2]
  MMP assays efficacy (%) Rat Hepatocytes: -88±22%
HepG2 cells [3]
  MMP assays efficacy (%) qHTS-HepG2: -91±18%
HepG2 cells [3]; [6]
  IC50: 27.4 ± 2.92 µM
Rat primary hepatocytes [4]
  IC50: 9.49 ± 7.98 µM

## Nc1ccc2cc3ccccc3cc2c1 [Compound 2-Aminoanthracene]
HepG2 cells [1]
  IC50: 3.55 µM
  Emax: 73%
Rat primary hepatocytes [2]
  MMP assays efficacy (%) Rat Hepatocytes: -51±35%
HepG2 cells [3]
  MMP assays efficacy (%) qHTS-HepG2: -72±12%
HepG2 cells [3]; [6]
  IC50: 4.71 ± 1.92 µM
Rat primary hepatocytes [4]
  IC50: 0.18 ± 0.2 µM

## OC(c1ccc(Cl)cc1)(c1ccc(Cl)cc1)C(Cl)(Cl)Cl [Dicofol]
HepG2 cells [1]
  IC50: 8.91 µM
  Emax: 101%
Rat primary hepatocytes [2]
  MMP assays efficacy (%) Rat Hepatocytes: -122±51%
HepG2 cells [3]
  MMP assays efficacy (%) qHTS-HepG2: -98±4%
HepG2 cells [3]; [6]
  IC50: 9.69 ± 3.51 µM
Rat primary hepatocytes [4]
  IC50: 24.6 ± 9.27 µM

## C=CC[C@]1(O)CC[C@H]2[C@@H]3CCC4=CCCC[C@@H]4[C@H]3CC[C@@]21C [Allylestrenol]
HepG2 cells [1]
  IC50: 31.6 µM
  Emax: 97%
Rat primary hepatocytes [2]
  MMP assays efficacy (%) Rat Hepatocytes: inactive
HepG2 cells [3]
  MMP assays efficacy (%) qHTS-HepG2: -52±13%
HepG2 cells [3]; [6]
  IC50: 12.8 ± 3.68 µM
Rat primary hepatocytes [4]
  MMP assays IC50 (µM) Rat Hepatocytes: inactive

## O=[N+]([O-])c1cc(C2CCCCC2)c(O)c([N+](=O)[O-])c1 [Dinex]
HepG2 cells [1]
  IC50: 0.71 µM
  Emax: 86%
Rat primary hepatocytes [2]
  MMP assays efficacy (%) Rat Hepatocytes: -96±4%
HepG2 cells [3]
  MMP assays efficacy (%) qHTS-HepG2: -88±10%
HepG2 cells [3]; [6]
  IC50: 0.28 ± 0.34 µM
Rat primary hepatocytes [4]
  IC50: 1.4 ± 0.6 µM

## O=C(CC(=O)c1ccccc1)c1ccccc1 [1,3-Diphenyl-1,3-propanedione]
HepG2 cells [1]
  IC50: 35.5 µM
  Emax: 121%
Rat primary hepatocytes [2]
  MMP assays efficacy (%) Rat Hepatocytes: -84±43%
HepG2 cells [3]
  MMP assays efficacy (%) qHTS-HepG2: -75±15%
HepG2 cells [3]; [6]
  IC50: 11.7 ± 1.35 µM
Rat primary hepatocytes [4]
  IC50: 39.8 ± 14.2 µM

## O=C(NC(=O)c1c(F)cccc1F)Nc1ccc(Cl)c(Oc2ncc(C(F)(F)F)cc2Cl)c1 [Fluazuron]
HepG2 cells [1]
  IC50: 12.3 µM
  Emax: 83%
Rat primary hepatocytes [2]
  MMP assays efficacy (%) Rat Hepatocytes: -64±17%
HepG2 cells [3]
  MMP assays efficacy (%) qHTS-HepG2: -66±7%
HepG2 cells [3]; [5]
  IC50: 3.96 ± 2.31 µM
Rat primary hepatocytes [4]
  IC50: 9.83 ± 13.6 µM

## COP(=S)(OC)Oc1cc(Cl)c(Cl)cc1Cl [Fenchlorphos]
HepG2 cells [1]
  IC50: 6.15 µM
  Emax: 99%
Rat primary hepatocytes [2]
  MMP assays efficacy (%) Rat Hepatocytes: -96±29%
HepG2 cells [3]
  MMP assays efficacy (%) qHTS-HepG2: -97±9%
HepG2 cells [3]; [6]
  IC50: 13.6 ± 2.52 µM
Rat primary hepatocytes [4]
  IC50: 20.6 ± 1.68 µM

## Clc1ccc(C(c2ccccc2Cl)C(Cl)Cl)cc1 (stereo not drawn) [o,p'-DDD]
HepG2 cells [1]
  IC50: 19.4 µM
  Emax: 151%
Rat primary hepatocytes [2]
  MMP assays efficacy (%) Rat Hepatocytes: -45±27%
HepG2 cells [3]
  MMP assays efficacy (%) qHTS-HepG2: -112±11%
HepG2 cells [3]; [5]
  IC50: 19.8 ± 0.94 µM
Rat primary hepatocytes [4]
  IC50: 24.2 ± 14.7 µM
